From patent publication US7122541B2, “Methods of inhibiting metastases” (Rhode Island Hospital, priority 2001, dated 2006)
“Also recorded” adds a separate entry of the source.

Tests used:
LS-180 cells [1] = assay: Flow cytometry (propidium iodide / BrdU) cell cycle and DNA content analysis; type: cell-based, human
Description: FIGS. 4A–D are histograms showing that Taurolidine induces apoptosis in human colon cancer cells. In FIGS. 4A–C, LS-180 cells were treated with 100, 200, and 400 μM concentrations of Taurolidine. After 24 hours the cells were harvested by trypsinization, labeled with propidium iodide, and their DNA content was measured by flow cytometry. The percentage of subdiploid DNA content, representing DNA degradation in apoptotic cells, is shown. […] LS-180 cells were treated with 100, 200, and 400 -μM concentrations of Taurolidine and harvested by trypsinization at 12, 24, and 36 hours. Caspase-3 activity was assessed by its ability to cleave the DEVD-pNA colorimetric substrate.
LS-180 cells were cultured in 100 mm Falcon plates (5×10^6 cells/plate) for 12 hours to become adherent. Cells were incubated for 12, 14 and 48 hours with complete medium (control) or 50, 100 and […] concentrations of Taurolidine. The cells were then treated with 10 μm bromodeoxyuridine (BrdU) for 30 minutes, and both floating and adherent cells were harvested for fixation in 70% ethanol. The DNA was denatured using 2N HCl and labeled with FITC-conjugated anti-BrdU antibody (anti-bromodeoxyuridine-fluorescein monoclonal antibody; Roche, Indianapolis, Ind.). Before analysis by flow cytometry the cells were treated with ribonuclease (Dnase-free ribonuclease, Roche, Indianapolis, Ind.) and propidium iodide (Sigma, St. Louis, Mo.). FACs analysis was performed on a FACscan flow cytometer (Becton Dickinson, N.J.).

[2] = system: LS-180 hepatic metastases; assay: Liver metastases model: splenic injection of LS-180 cells in nude mice, IP treatment; type: in vivo; details: for Serum CEA: mean ± SE, n = 20, after 3 weeks IP Taurolidine; for reduction in serum CEA levels vs control: 3 weeks IP therapy; for reduction in liver weight vs control: daily IP, 5 days/week, 3 weeks
Description: General anesthesia was induced using 400 μl choral hydrate (2%). Using sterile conditions, a vertical paramedian incision was used to expose the spleen. An intrasplenic injection of 1×10^5 tumor cells in 0.4 ml of serum free medium was performed, followed by splenectomy using hemoclips for vascular control. The incision was then closed using surgical staples. Beginning post injections days 2 or 5, mice received IP injections of 0.45% normal saline (n=10 per group) or Taurolidine (n=20 per group). Taurolidine (Boehringer Ingelheim, Germany) was given as a daily 0.5 ml IP injection of 2% solution ([…]) for 5 consecutive days per week for a total of 3 weeks. The day following the last treatment of Taurolidine or 0.45% NS, the mice were sacrificed and examined for gross tumor. Blood was drawn from the right ventricle, immediately centrifuged, and serum collected for CEA assays. The livers were weighed and fixed in HistoFix and representative sections taken for H&E microscopic examination. In addition, 9 mice (n=3 per group) were used to study the tumor model. At days 5, 10 and 15, mice that received a splenic tumor cell injection without any further intervention were sacrificed to assess tumor burden at varying time points. The livers were assessed for gross tumor and submitted in toto for histologic examination.

LS-180 cells [3] = assay: WST-8 tetrazolium cell number assay; details: dose-dependent; concentration not given
caspase-3 = assay: Caspase-3 colorimetric assay (DEVD-pNA substrate); type: cell-based, human
Description: To measure caspase activity, cells were incubated in six-well Falcon plates (1×10^6 cells/well) and harvested by trypsinization. The cells were then pelleted and lysed as per the manufacturer's recommendation (MBL, Nagoya, Japan) and the cytosolic protein concentration was quantified using a BCA protein assay reagent (Pierce, Rockford, Ill.). The caspase-3 assay was performed in a 96-well microtiter plate using 100 μg of protein and 5 μl of 4 mM DEVD-pNA Substrate (CPP32/caspase-3 Colorimetric Protease Assay Kit; MBL, Nagoya, Japan). The protein and reagent were then incubated for 2 hours at 37° C. A background reading from cell lysates and buffer without DEVD-pNA substrate was subtracted from samples; the assay was performed in triplicate. Samples were read at 405 nm in a microtiter plate reader.
Caspase Inhibitor I (Z-VAD-fink; z-Val-Ala-Asp(OMe)-CH2F, Calbiochem; La Jolla, Calif.) was used from a 21 mM stock in DMSO stored at −20° C. until use and then diluted into tissue culture medium immediately prior to its application. After a 2-hour incubation with the caspase inhibitor, cells were treated with Taurolidine. […] Untreated cells received an equivalent dilution of DMSO.

LS-180 cells [4] = assay: Light microscopy / Hoechst 33258 staining for apoptotic morphology; type: cell-based, human; details: even at 400 μm; light microscopy or Hoechst 33258
[5] = Lactate dehydrogenase (LDH) release cytotoxicity assay; type: cell-based, human; details: human, LS-180 cells
Description: (§1) Cytotoxicity was quantified using a standard lactate dehydrogenase cytotoxicity assay (Cytotoxicity Detection Kit, Roche). LS-180 cells (2.5×10^5 cell/well) were cultured in Falcon 96-well microtiter plates in a humidified incubator at 37° C., 5% CO2. […] Triton X-100 (1% final concentration) was used to lyse cells and determine the maximum release of LDH enzyme (high control). Cytotoxicity was determined as per the manufacturer's protocol, and the absorbance was measured at 490 nm in a microtiter plate reader.
(§2) Cytotoxicity was assessed by measuring lactate dehyhdrogenase (LDH) activity released from the cytosol of damaged cells. […] Taurolidine, even at a 400 μm concentration, produced minimal cytotoxic effects on LS-180 cells. […] This is in contradistinction to previously reported in vitro studies of Taurolidine on malignant cell lines.

LS-180 cells [6] = assay: as above; type: cell-based, human; details: 100, 200 and 400 μM, 24 hours
Description: as §1, §2

LS-180 cells [7] = assay: Crystal violet cell viability / adherent cell assay; type: cell-based, human
Description: (§3) Cell proliferation was assessed using a standard MTT (3,(4,5-dimethylthiazol-2yl)2,5-diphenyltetrazolium bromide; Sigma, St. Louis, Mo.) dye at 570 nm. Cells were into seeded in 96-well microtiter plates (2×10^5 cells/well) using 200 μl of medium. After a 12 hour incubation, Taurolidine was applied for a period of 6, 9, 12, 24 or 48 hours. At each time point 20 μl of MTT (5 mg/ml) was added and the cells were incubated at 37° C. for an additional 30 minutes. The medium was removed and the dye was eluted using acidic isopropyl alcohol (0.04N HCl). Cell viability was measured using crystal violet dye. Cells were seeded and treated with Taurolidine as described for the MTT assay. The medium was then removed and the cells were stained and fixed using a crystal violet staining solution containing 0.75% Crystal violet, 50% EtOH, 0.25% NaCl, and 1.75% formaldehyde for 10 minutes at room temperature. After staining and fixation the cells were rinsed with water and air-dried. The crystal violet dye was eluted using a 1% SDS in PBS solution and the absorbance was measured at 540 nm in a microtiter plate reader.
(§4) The human LS-180 colon cancer cell line was incubated with 25, 50, 75, and 100 μm concentrations of Taurolidine, and an MTT assay was performed at 6, 9, 12, 24 and 48 hours after Taurolidine administration. An accompanying crystal violet assay was performed under the same conditions. […] Flow cytometry was also performed using bromodeoxyuridine (BrdU) to help quantify the proportion of cells in S phase and evaluate cell proliferation.

LS-180 cells [8] = assay: MTT cell proliferation assay; type: cell-based, human
Description: as §3, §4

[9] = treatment begun 2 days after splenic tumor injection
[10] = treatment begun 5 days after splenic tumor injection
[11] = dose-dependent, concentration not given

Molecule: O=S1(=O)CCN(CN2CCS(=O)(=O)NC2)CN1 [Taurolidine, bis(1,1-dioxoperhydro-1,2,4-thiadiazinyl-4)methane]
- sub-G1 peak by propidium iodide flow cytometry (LS-180 cells [1]; 50 and 100 μm, 24 hours): failed to demonstrate a sub-GI peak; also recorded: failed to demonstrate a sub-G1 peak
- sub-diploid DNA peak (DNA degradation in apoptotic cells) (LS-180 cells [1]; 100, 200 and 400 μM, 24 hours): dose dependent increase
- cell cycle progression / proliferation (flow cytometry, BrdU) (LS-180 cells [1]; treated vs untreated cells, 50 and 100 μm): no significant change in cell cycle progression; also recorded: no significant change in proliferation or cell cycle
- tolerability / deaths during therapy ([2]; 10-mg per day IP, five consecutive days x 3 weeks): well tolerated, resulting in no deaths of animals; also recorded: all mice tolerated the full 3-week course of treatment
- Serum CEA ([2]; Day 2 group): 7.73 ± 0.52 ng/mL
- Serum CEA ([2]; Day 5 group): 11.88 ± 1.97 ng/mL
- gross hepatic tumor burden vs control ([2]; daily IP Taurolidine for 3 weeks, begun day 2 or 5): dramatic reduction in hepatic tumor involvement; also recorded: dramatic reduction of tumor burden; also recorded: striking decrease in tumor burden; also recorded: marked reduction in tumor burden; also recorded: marked decrease in tumor burden
- reduction in serum CEA levels vs control [2, 9]: 69%
- reduction in liver weight vs control [2, 9]: 18%
- reduction in serum CEA levels vs control [2, 10]: 78%
- reduction in liver weight vs control [2, 10]: 22%
- decrease in tumor cell viability (WST-8 assay) (LS-180 cells [3]): 85%
- caspase-3 activity (caspase-3; 100, 200 and 400 μM, 12, 24 and 36 hours): dose-dependent increase; also recorded: dose dependent increase
- apoptotic morphology (LS-180 cells [4]): failed to demonstrate cell shrinkage, cytoplasmic condensation, nuclear fragmentation or blebbing
- cytotoxicity ([5]; 50, 100 and 400 μm, 12 or 24 hours, read-out: percent cytotoxicity (LDH release), all cases): < 2%
- cytotoxicity at 24 h, 50 µM ([5]; 50 μm, 24 hours, read-out: percent cytotoxicity (LDH release)): -0.07%
- cytotoxicity at 24 h, 100 µM ([5]; 100 μm, 24 hours, read-out: percent cytotoxicity (LDH release)): 0.15%
- cytotoxicity at 24 h, 400 µM ([5]; 400 μm, 24 hours, read-out: percent cytotoxicity (LDH release)): 1.58%
- cytolysis (culture medium LDH activity) (LS-180 cells [6]): no significant cytolysis
- cell adherence (crystal violet assay) (LS-180 cells [7]; 10-400 μM Taurolidine): loss of cell adherence
- reduction in cell number (crystal violet assay) (LS-180 cells [7]; 100 μm, after 24 hours): 40–50%
- decrease in adherent tumor cells (crystal violet assay) (LS-180 cells [7]; [11]): 60%
- decrease in tumor cell viability (crystal violet assay) (LS-180 cells [7]; [11]): 85%
- decrease by MTT assay (LS-180 cells [8]; 100 μm Taurolidine, present as early as 9 hours after exposure): 40–50%
- reduction in cell number (MTT assay) (LS-180 cells [8]; 100 μm, after 24 hours): 40–50%
- decrease in adherent tumor cells (MTT assay) (LS-180 cells [8]; [11]): 60%

Molecule: z-Val-Ala-Asp(OMe)-CH2F [Z-VAD-fmk]
- caspase-3 activity in Taurolidine-treated cells after caspase inhibition (caspase-3; 50 μM Z-VAD-fmk before 100, 200, 400 μM Taurolidine, vs untreated LS-180 cells): no significant increase in caspase-3 activity
- loss of cell adherence of Taurolidine-treated cells after caspase inhibition (crystal violet) (LS-180 cells [7]; 50-uM Z-VAD-fmk before Taurolidine): not affected
